{"source": "paper PMC10817170", "about": "“Effect of an NHE3 inhibitor in combination with an NPT2b inhibitor on gastrointestinal phosphate absorption in Rodent models” (PLOS ONE, 2024)", "key": {"[1]": {"system": "acute phosphate uptake into plasma", "experiment": "Acute phosphate uptake in rats, LY3304000 with fixed 1.2 mg/kg LY3358966", "assay_type": "in vivo", "protocol": "NHE3 inhibitor LY3304000 and NPT2b inhibitor LY3358966 SDD were used in combination to assess their effect on phosphate absorption in rats. To make the LY3358966 dosing solution, an appropriate amount of LY3358966 SDD was weighed for a 1.2 mg/kg API dosing solution with 10 mL/kg dosing volume and dissolved in water. To make the LY3304000 dosing solution, an appropriate amount of LY3304000 was weighed for a 10 mg/kg dose with 10 mL/kg dosing volume and dissolved in 1% HEC vehicle. The subsequent dosing solutions for 3, 1, 0.3, 0.1, 0.03, 0.01, 0.003, and 0.001 mg/kg LY3304000 were prepared by serial dilutions with 1% HEC. Following 12-hour fasting, male SD rats were orally dosed at 10 mL/kg with 1% HEC vehicle, 1.2 mg/kg LY3358966 or increasing doses of LY3304000 with a fixed, 1.2 mg/kg dose of LY3358966. In the vehicle group, the animals were dosed first with 1% HEC immediately followed by water. In the LY3358966 alone group, the animals were first dosed with 1% HEC immediately followed by LY3358966. In the combination groups, the animals were dosed first with LY3304000 immediately followed by LY3358966. Fifteen minutes later, 2 mL Radiolabeled Phosphate Dosing Solution was orally dosed. Fifteen minutes later, blood was collected by cardiac stick, and plasma was prepared. Radioactivity (dpm) in 50-μL plasma was measured by scintillation counting. To measure the total radioactivity dosed to each rat, the radioactivity in two 10-μL samples of the Radiolabeled Phosphate Dosing Solutions was measured by scintillation counting. The mole amount of phosphate uptake was calculated as described above to determine acute phosphate uptake."}, "[2]": {"experiment": "Pharmacokinetics study after oral dosing", "assay_type": "in vivo, rats", "protocol": "Following oral dosing of the free base from of LY3304000 in a vehicle of 1% Hydroxyethylcellulose, 0.25% Polysorbate 80, and 0.05% Antifoam in purified water, the level of LY3304000 in rat blood 2.5-hour post dose was below the limit of quantification of LY330400 (0.815 nM with LC/MS method). Further characterization of the pharmacokinetic properties of LY3304000 was hampered by an inability to identify an appropriate vehicle for IV dosing."}, "[3]": {"biological_target": "T1, Human NPT2b (Homo sapiens, UniProt O95436)", "T1 construct": "expressed in transfected cells; host or cells: T-Rex CHO (Thermo Fisher Scientific), tetracycline-inducible", "T1 sequence (O95436 1-690)": "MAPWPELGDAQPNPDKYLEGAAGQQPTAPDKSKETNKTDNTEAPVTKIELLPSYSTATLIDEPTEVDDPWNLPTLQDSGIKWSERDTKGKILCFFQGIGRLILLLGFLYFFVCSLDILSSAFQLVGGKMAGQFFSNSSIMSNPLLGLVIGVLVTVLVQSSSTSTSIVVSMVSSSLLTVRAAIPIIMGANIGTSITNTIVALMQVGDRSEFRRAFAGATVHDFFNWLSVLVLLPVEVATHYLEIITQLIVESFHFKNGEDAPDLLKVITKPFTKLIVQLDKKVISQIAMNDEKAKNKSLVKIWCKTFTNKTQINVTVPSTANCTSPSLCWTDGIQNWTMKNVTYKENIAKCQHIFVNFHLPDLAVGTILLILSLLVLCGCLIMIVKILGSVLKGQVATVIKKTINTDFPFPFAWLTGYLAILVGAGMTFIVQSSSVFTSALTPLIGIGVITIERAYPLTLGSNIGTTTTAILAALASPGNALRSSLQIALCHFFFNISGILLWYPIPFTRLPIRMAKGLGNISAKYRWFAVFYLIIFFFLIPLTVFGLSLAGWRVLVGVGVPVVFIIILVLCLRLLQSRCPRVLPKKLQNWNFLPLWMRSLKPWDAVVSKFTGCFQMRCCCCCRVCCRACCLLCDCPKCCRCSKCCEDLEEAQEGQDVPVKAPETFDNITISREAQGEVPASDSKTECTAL", "experiment": "NPT2b activity assay (33P-phosphate uptake in T-Rex CHO cells)", "assay_type": "cell-based", "conditions": "geometric mean, n=3", "protocol": "Generation of inducible human, mouse, and rat NPT2b overexpressing T-Rex™ Chinese Hamster Ovary (CHO, Thermo Fisher Scientific) cells and the NPT2b activity assay were described previously. Briefly, cells were plated in 96-well CytoStar-T® scintillating microplates and were incubated overnight in medium plus 100 ng/mL of tetracycline to induce the expression of human NPT2b. The cells were then washed 3 times with 200 μL Assay Buffer (137 mM NaCl, 5.4 mM KCl, 2.8 mM CaCl2, 1.2 mM MgSO4, and 14 mM Tris-HCl buffer, pH 7.5). LY3304000 serially diluted 1-to-3 in DMSO was added to cells with Assay Buffer. An equal volume of H3^33PO4 (PerkinElmer) in Assay Buffer supplemented with 5 μM potassium phosphate was then added to initiate radiolabeled phosphate (^33P-phosphate) uptake. The final phosphate concentration was 2.5 μM. Following a 60-minute incubation at room temperature, an equal volume of Assay Buffer containing 400 μM phloretin was added to stop ^33P-phosphate uptake. The plate was immediately read on a Wallac MicroBeta Trilux liquid scintillation counter. Percent inhibition at all concentrations tested was calculated, and IC50 values were then determined using a 4-parameter logistic curve fitting equation."}}, "data": [{"compound": "CN1Cc2c(Cl)cc(Cl)cc2[C@H](c2cccc(S(=O)(=O)NCCOCCOCCN/C(=N\\C(N)=O)NCCCCN/C(=N/C(N)=O)NCCOCCOCCNS(=O)(=O)c3cccc([C@@H]4CN(C)Cc5c(Cl)cc(Cl)cc54)c3)c2)C1.Cl.Cl", "note": "[LY3304000, (Z)-[[4-[[(Z)-N’-carbamoyl-N-[2-[2-[2-[[3-[(4S)-6,8-dichloro-2-methyl-3,4-dihydro-1H-isoquinolin-4-yl]phenyl]sulfonylamino]ethoxy]ethoxy]ethyl]carbamimidoyl]amino]butylamino]-[2-[2-[2-[[3-[(4S)-6,8-dichloro-2-methyl-3,4-dihydro-1H-isoquinolin-4-yl]phenyl]sulfonylamino]ethoxy]ethoxy]ethylamino]methylene]urea dihydrochloride]", "values": [{"measurement": "acute phosphate uptake, % of vehicle control", "setting": "[1]; highest dose of LY3304000 plus 1.2 mg/kg LY3358966", "result": 30, "unit": "%"}, {"measurement": "acute phosphate uptake into plasma", "setting": "[1]; highest dose of LY3304000 tested plus 1.2 mg/kg LY3358966, vehicle 710 nmoles", "result": 212, "unit": "nmol"}, {"measurement": "detection in plasma following oral dosing", "setting": "[2]; oral dosing", "result": "could not be detected"}, {"measurement": "concentration at 2.5 h", "setting": "[2]; rat, whole blood, oral, free base, 2.5-hour post dose, below limit of quantification (LC/MS), read-out: level in rat blood", "result": "< 0.815", "unit": "nM"}, {"measurement": "IC50", "setting": "[3]", "result": 58.4, "unit": "µM"}]}]}
